Measurements from the supplement of paper PMC10307832.

Columns and labels:
Test in all cases: relative viability (nuclei count vs DMSO), 5 days (fraction); higher = more cells survive
Wnt-C59 + Phenformin = compound: CC1=NC=CC(=C1)C2=CC=C(C=C2)CC(=O)NC3=CC=C(C=C3)C4=CN=CC=C4 [Wnt-C59] + N=C(N)NC(=N)NCCc1ccccc1 [Phenformin] (partner 250 µM)
How it was run: (§1)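 Cells from lung cancer lines were seeded into 1536-well plates and, one day later, dosed by pin tool. Treatments were either a single drug or a fixed dose of an anchor drug with five library-drug doses (not always all listed) in √10 steps. After 5 days, nuclei were stained in a one-step fixation (final 0.05% Triton X-100, 1% formaldehyde, 1 ug/ml Hoechst) and counted on 4× images, and relative viability is the treated-to-vehicle nuclei ratio, as the median of duplicate plates.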

Wnt-C59 + Vorinostat = compound: CC1=NC=CC(=C1)C2=CC=C(C=C2)CC(=O)NC3=CC=C(C=C3)C4=CN=CC=C4 [Wnt-C59] + O=C(CCCCCCC(=O)Nc1ccccc1)NO [Vorinostat] (partner 1 µM)
How it was run: as §1

Lapatinib + Linsitinib = compound: CS(=O)(=O)CCNCc1ccc(-c2ccc3ncnc(Nc4ccc(OCc5cccc(F)c5)c(Cl)c4)c3c2)o1 [Lapatinib] + C[C@]1(O)C[C@@H](c2nc(-c3ccc4ccc(-c5ccccc5)nc4c3)c3c(N)nccn32)C1 [Linsitinib] (partner 1 µM)
How it was run: as §1

Lapatinib + Olaparib = compound: CS(=O)(=O)CCNCc1ccc(-c2ccc3ncnc(Nc4ccc(OCc5cccc(F)c5)c(Cl)c4)c3c2)o1 [Lapatinib] + O=C(c1cc(Cc2n[nH]c(=O)c3ccccc23)ccc1F)N1CCN(C(=O)C2CC2)CC1 [Olaparib] (partner 8 µM)
How it was run: as §1

UMC-11
relative viability (Wnt-C59 + Phenformin; first compound 0.001 µM): 0.305
relative viability (Wnt-C59 + Phenformin; first compound 0.01 µM): 0.282
relative viability (Wnt-C59 + Phenformin; first compound 0.03162 µM): 0.328
relative viability (Wnt-C59 + Phenformin; first compound 0.1 µM): 0.32
relative viability (Wnt-C59 + Vorinostat; first compound 0.001 µM): 0.445
relative viability (Wnt-C59 + Vorinostat; first compound 0.01 µM): 0.418
relative viability (Wnt-C59 + Vorinostat; first compound 0.03162 µM): 0.339
relative viability (Wnt-C59 + Vorinostat; first compound 0.1 µM): 0.422
relative viability (Lapatinib + Linsitinib; first compound 0.02 µM): 1
relative viability (Lapatinib + Linsitinib; first compound 0.06325 µM): 0.964
relative viability (Lapatinib + Linsitinib; first compound 0.2 µM): 1.11
relative viability (Lapatinib + Linsitinib; first compound 0.6325 µM): 0.985
relative viability (Lapatinib + Linsitinib; first compound 2 µM): 1.02
relative viability (Lapatinib + Olaparib; first compound 0.02 µM): 0.299
relative viability (Lapatinib + Olaparib; first compound 0.06325 µM): 0.342
relative viability (Lapatinib + Olaparib; first compound 0.2 µM): 0.347
relative viability (Lapatinib + Olaparib; first compound 0.6325 µM): 0.376
relative viability (Lapatinib + Olaparib; first compound 2 µM): 0.327
